Experimental data published in patent publication US10358437B2, “Therapeutic compounds and uses thereof” (GENENTECH, INC., priority 2014, dated 2019).
Where a name gives a salt, the structure may show the parent alone.

The compounds below were run against T1, PCAF bromodomain (Homo sapiens, UniProt Q92831) (assay: PCAF AlphaLisa binding assay). Settings: His/Flag tagged PCAF719-832 bromodomain 225 nM, biotinylated small molecule ligand 6 nM.
T1 construct: Flag; made in house
T1 sequence (Q92831 719-832): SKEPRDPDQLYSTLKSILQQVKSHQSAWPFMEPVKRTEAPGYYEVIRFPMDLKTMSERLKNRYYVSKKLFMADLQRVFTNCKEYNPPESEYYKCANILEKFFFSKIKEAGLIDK
Protocol: IC50 Measurements for Inhibitors Using PCAF AlphaLisa Binding Assay
His/Flag epitope tagged PCAF719-832 bromodomain was cloned, expressed and purified to homogeneity in-house. PCAF bromodomain binding and inhibition of the compounds disclosed herein was assessed by monitoring the engagement of biotinylated small molecule ligand (known to bind to the PCAF bromodomain) with the target using the AlphaLisa technology (Perkin-Elmer). Specifically, in a 384 well ProxiPlate PCAF bromodomain (225 nM final) was combined with the biotinylated small molecule ligand (6 nM final) in 50 mM HEPES (pH 7.5), 75 mM NaCl, 1 mM TCEP, 0.01% (w/v) BSA, and 0.008% (w/v) Brij-35 either in the presence of DMSO (final 0.2% DMSO) or compound dilution series in DMSO. After 15 minute incubation at room temperature AlphaLisa streptavidin acceptor beads and AlphaLisa anti-histidine donor beads were added to a final concentration of 12.5 μg/mL each.
PCAF IC50 values for the Examples 1-22 were determined using the general procedure described above.

IC50 | Structure (SMILES)
> 20 µM | Cn1nc(N2CCNC(c3ccccc3)C2)c(=O)n(C)c1=O (racemic) [Example 13, 2,4-dimethyl-6-(3-phenylpiperazin-1-yl)-1,2,4-triazine-3,5(2H,4H)-dione]
0.25 µM | CN(C)C(CNc1nn(C)c(=O)n(C)c1=O)c1ccc(C(F)(F)F)cc1 (racemic) [Example 14, 6-((2-(dimethylamino)-2-(4-(trifluoromethyl)phenyl)ethyl)amino)-2,4-dimethyl-1,2,4-triazine-3,5(2H,4H)-dione]
0.48 µM | CN(C)C(C)(CNc1nn(C)c(=O)n(C)c1=O)c1ccccc1 (racemic) [Example 15, 6-((2-(dimethylamino)-2-phenylpropyl)amino)-2,4-dimethyl-1,2,4-triazine-3,5(2H,4H)-dione]
8.1 µM | Cn1nc(NCC(c2ccccc2)N2CCCC2)c(=O)n(C)c1=O (racemic) [Example 16, 2,4-dimethyl-6-((2-phenyl-2-(pyrrolidin-1-yl)ethyl)amino)-1,2,4-triazine-3,5(2H,4H)-dione]
1.1 µM | CN(C)[C@H]1CCCC[C@H]1Nc1nn(C)c(=O)n(C)c1=O (racemic) [Example 19, 6-((2-(dimethylamino)cyclohexyl)amino)-2,4-dimethyl-1,2,4-triazine-3,5(2H,4H)-dione hydrochloride]
0.23 µM | CN(C)[C@@H]1CCCC[C@H]1Nc1nn(C)c(=O)n(C)c1=O (racemic) [Example 20, 6-(((1R,2R)-2-(dimethylamino)cyclohexyl)amino)-2,4-dimethyl-1,2,4-triazine-3,5(2H,4H)-dione]
1.2 µM | CN1CCc2ccccc2C1CNc1nn(C)c(=O)n(C)c1=O (racemic) [Example 21, 2,4-dimethyl-6-(((2-methyl-1,2,3,4-tetrahydroisoquinolin-1-yl)methyl)amino)-1,2,4-triazine-3,5(2H,4H)-dione]
12 µM | CCn1nc(NCC(c2ccccc2)N(C)C)c(=O)n(CC)c1=O (racemic) [Example 22, 6-((2-(dimethylamino)-2-phenylethyl)amino)-2,4-diethyl-1,2,4-triazine-3,5(2H,4H)-dione]
0.12 µM | C[C@H](Nc1nn(C)c(=O)n(C)c1=O)[C@H](c1ccccc1)N(C)C (single isomer, unassigned) [Example 17]
0.07 µM | C[C@H](Nc1nn(C)c(=O)n(C)c1=O)[C@H](c1ccc(S(=O)(=O)c2ccccc2)cc1)N(C)C (single isomer, unassigned) [Example 18]

The remaining lines, values behind:

Structure (SMILES) | IC50
CN1c2ccccc2CCC1CNc1nn(C)c(=O)n(C)c1=O (racemic) [Example 2, 2,4-dimethyl-6-(((1-methyl-1,2,3,4-tetrahydroquinolin-2-yl)methyl)amino)-1,2,4-triazine-3,5(2H,4H)-dione] | > 20 µM
CN1CCCC1CNc1nn(C)c(=O)n(C)c1=O (racemic) [Example 3, 2,4-dimethyl-6-(((1-methylpyrrolidin-2-yl)methyl)amino)-1,2,4-triazine-3,5(2H,4H)-dione] | 2.5 µM
CN(C)C(CNc1nn(C)c(=O)n(C)c1=O)c1ccc(F)cc1 (racemic) [Example 4, 6-((2-(dimethylamino)-2-(4-fluorophenyl)ethyl)amino)-2,4-dimethyl-1,2,4-triazine-3,5(2H,4H)-dione] | 0.28 µM
COc1ccc(C(CNc2nn(C)c(=O)n(C)c2=O)N(C)C)cc1 (racemic) [Example 6, 6-((2-(dimethylamino)-2-(4-methoxyphenyl)ethyl)amino)-2,4-dimethyl-1,2,4-triazine-3,5(2H,4H)-dione] | 0.15 µM
CN1Cc2ccccc2CC1CNc1nn(C)c(=O)n(C)c1=O (racemic) [Example 8, 2,4-dimethyl-6-[(2-methyl-3,4-dihydro-1H-isoquinolin-3-yl)methylamino]-1,2,4-triazine-3,5-dione] | 0.38 µM
CN(C)C(CNc1nn(C)c(=O)n(C)c1=O)c1cccc(Cl)c1 (racemic) [Example 10, 6-((2-(3-chlorophenyl)-2-(dimethylamino)ethyl)amino)-2,4-dimethyl-1,2,4-triazine-3,5(2H,4H)-dione] | 0.43 µM
CN(C)C(CNc1nn(C)c(=O)n(C)c1=O)Cc1ccccc1 (racemic) [Example 11, 6-((2-(dimethylamino)-3-phenylpropyl)amino)-2,4-dimethyl-1,2,4-triazine-3,5(2H,4H)-dione] | 1.4 µM
CN(C)C1CCCN(c2nn(C)c(=O)n(C)c2=O)C1 (racemic) [Example 12, 6-(3-(dimethylamino)piperidin-1-yl)-2,4-dimethyl-1,2,4-triazine-3,5(2H,4H)-dione] | > 20 µM
CN(CCNc1nn(C)c(=O)n(C)c1=O)CC(F)(F)F [Example 1, 2,4-dimethyl-6-((2-(methyl(2,2,2-trifluoroethyl)amino)ethyl)amino)-1,2,4-triazine-3,5(2H,4H)-dione] | > 20 µM
Cn1nc(NCCNc2ccccc2)c(=O)n(C)c1=O [Example 5, 2,4-dimethyl-6-((2-(phenylamino)ethyl)amino)-1,2,4-triazine-3,5(2H,4H)-dione] | 65 µM
CN(C)CCN(C)c1nn(C)c(=O)n(C)c1=O [Example 7, 6-((2-(dimethylamino)ethyl)(methyl)amino)-2,4-dimethyl-1,2,4-triazine-3,5(2H,4H)-dione (trifluoroacetic acid salt)] | 37 µM
CN(CCNc1nn(C)c(=O)n(C)c1=O)Cc1ccccc1 [Example 9, 6-((2-(benzyl(methyl)amino)ethyl)amino)-2,4-dimethyl-1,2,4-triazine-3,5(2H,4H)-dione] | 7.5 µM
